Tests used:
human cardiomyocytes = system: human cardiomyocytes
Description: The percentage of cell death, inherently and after drug treatment, was calculated by Trypan Blue staining (FIG. 2).
The doses for each compound were based upon published standards, equivalent to therapeutic circulating levels whenever possible (see Table 1).

[1] = system: human cardiomyocytes (Celprogen 36044-15at); assay: LC-ESI-TOF-MS metabolomics of extracellular media of drug-treated human cardiomyocytes (Tables 2A-2C); format: cell-based; settings: for doxfold: 26uM Doxorubicin; for tamfold: 15uM tamoxifen
Description: Data for statistical analysis were extracted from chromatograms using the Agilent Mass Hunter software (Product No. G3297AA, Agilent Technologies, Inc., Santa Clara, Calif.); it will be understood that alternative statistical analysis methods can be used. Masses were binned together if they were within 10 ppm and eluted within a 2 minutes retention time window. A binned mass was considered to be the same molecule across different LC-ESI-TOF-MS analyses (referred to herein as an “exact mass,” which will be understood to be ±10 ppm). Binning of the data is required for statistical analysis and comparison of masses across the entire experiment. If multiple peaks with the same mass at the same retention time within a single sample were detected by Mass Hunter, they were averaged to assist data analysis. Masses lacking a natural isotopic distribution or with an absolute height of less than 1000 were removed from the data prior to analysis. It would be understood that the results from this assay provide relative values that are assessed according to annotated values within 10 ppm to provide an identity for the molecular weight detected. Thus, a mass shift within 10 ppm is considered consistent with determining the identity of a specific cellular metabolite previously annotated due to differences in ionization source and instrumentation, e.g. between different experiments or using different instruments.
As used herein, a mass was considered to be the same across LC/ESI-TOF-MS runs using a simple algorithm that first sorts the data by mass and retention time. […] If a series of measurements fit this definition it was considered to be from the same compound. If either the mass or the retention time varied by more than the limits listed above it was considered to be a different compound and given a new unique designation.
The data from the most reproducible mass features was log base 2 transformed and median centered prior to statistical analysis. […] To test the null hypothesis a one way permutation based t-test assuming a normal approximation of the conditional distribution was used and implement using the Conditional Inference Procedures in a Permutation Test Framework (Coin) library, a contributed package of programming code. Statistics tests were performed without replacement of missing values decrease the degrees of freedom rather than imputing missing values. […] False discovery rates (FDR) were controlled using the Q value estimator (Storey et al., 2003, Proc Natl Acad. Sci., 100:9440-5) and implemented using the qvalue library in R (Dabney et al., 2003, qvalue: Q-value estimation for false discovery rate control. R package version 1.10.0., www.CRAN.R-project.org).
The extracellular media from treated and untreated cells was processed as described in Cezar et al., (2007, Stem Cells Development 16: 869-882, this publication is incorporated by reference), for extraction of low molecular weight molecules (<3 kD) for metabolomics analysis. Extracellular low molecular weight molecule preparations were separated by liquid chromatography followed by electrospray ionization time of flight (LC-ESI-TOF-MS) mass spectrometry for ionization and detection of the full spectra of low molecular weight molecules present in each sample. More specifically, the samples were separated using the ESI_Luna_HILIC—95_t—06OACN—16 min method (HILIC chromatography). Statistical differences were inferred by subsequent bioinformatics and in silico mapping of deisotoped ESI-TOF-MS mass features as described below (also provided in Cezar et al. (2007, id.)).
Briefly, ionization (100 m/z-1500 m/z) was acquired on an Agilent 6520 Accurate-Mass Q-TOF in extended dynamic range and positive mode. Mass features were generated using two independent methods. First MassHunter Qualitative Analysis was used to generate mass features using the Molecular Feature Extraction algorithm (MFE).

[2] = feature cpdID 36, neutral mass 101.1204, RT 0.720145, Triethylamine or Hexylamine
[3] = feature cpdID 8902, neutral mass 276.1256, RT 8.733378, no hit
[4] = feature cpdID 11232, neutral mass 311.1029, RT 7.400847, p-Glucosyloxymandelonitrile or (S)-4-Hydroxymandelonitrile beta-D-glucoside
[5] = feature cpdID 14190, neutral mass 356.253, RT 1.103957, HMDB04239, 13,14-dihydro PGE1 or Prostaglandin F1alpha
[6] = feature cpdID 16504, neutral mass 393.0913, RT 7.25538, no hit
[7] = feature cpdID 16939, neutral mass 400.2796, RT 1.108613, 7-Ketocholesterol
[8] = feature cpdID 17096, neutral mass 403.1776, RT 6.2306, no hit
[9] = feature cpdID 19500, neutral mass 444.3034, RT 1.106333, […]-Dihydroxyvitamin D3-26,23-lactone
[10] = feature cpdID 19704, neutral mass 448.1344, RT 7.184483, no hit
[11] = feature cpdID 21926, neutral mass 488.3323, RT 1.106573, no hit
[12] = feature cpdID 23163, neutral mass 516.1241, RT 7.217222, Formononetin 7-O-glucoside-6″-O-malonate, Isochlorogenic acid b or 13-Dicaffeoylquinic acid
[13] = feature cpdID 24142, neutral mass 538.2779, RT 0.783395, no hit
[14] = feature cpdID 25561, neutral mass 575.2051, RT 7.271724, no hit
[15] = feature cpdID 25601, neutral mass 576.3861, RT 1.10751, 3-Hexaprenyl-4-hydroxy-5-methoxybenzoic acid
[16] = feature cpdID 27363, neutral mass 620.4117, RT 1.108317, no hit
[17] = feature cpdID 28720, neutral mass 661.1924, RT 6.495524, no hit
[18] = feature cpdID 29101, neutral mass 672.1828, RT 6.528464, no hit
[19] = feature cpdID 29227, neutral mass 676.1781, RT 1.298314, no hit
[20] = feature cpdID 31637, neutral mass 744.1091, RT 1.26415, no hit
[21] = feature cpdID 33162, neutral mass 791.2316, RT 6.496594, no hit
[22] = feature cpdID 37905, neutral mass 932.2608, RT 6.542554, no hit
[23] = feature cpdID 37938, neutral mass 933.3726, RT 8.330596, no hit
[24] = feature cpdID 42137, neutral mass 1122.172, RT 1.256606, no hit
[25] = feature cpdID 45209, neutral mass 1300.402, RT 6.501484, no hit
[26] = feature cpdID 45486, neutral mass 1322.385, RT 6.518707, no hit

`COc1cccc2c1C(=O)c1c(O)c3c(c(O)c1C2=O)C[C@@](O)(C(=O)CO)C[C@@H]3O[C@H]1C[C@H](N)[C@H](O)[C@H](C)O1` [Doxorubicin] was tested, and the “cell death (in words)” value (human cardiomyocytes) was “significantly higher cell death”, the doxfold [1, 2] was −1.186 fold and the doxfold [1, 3] was 2.438 fold. The doxfold [1, 4] was 5.193 fold, the doxfold [1, 5] was 12.32 fold and the doxfold [1, 6] was 1.09 fold. For the same compound, the doxfold [1, 7] was 11.7 fold, the doxfold [1, 8] was −2.02 fold and the doxfold [1, 9] was 16.24 fold. For the same compound, the doxfold [1, 10] was 2.122 fold, the doxfold [1, 11] was 7.799 fold and the doxfold ([1]; feature cpdID 23129, neutral mass 515.181, RT 10.44297, no hit) was 1.178 fold. It also gave a doxfold [1, 12] of 2.198 fold, a doxfold [1, 13] of 1.559 fold and a doxfold ([1]; feature cpdID 25445, neutral mass 572.1055, RT 7.089848, no hit) of 1.199 fold. It also gave a doxfold [1, 14] of 2.11 fold, a doxfold [1, 15] of 4.776 fold and a doxfold [1, 16] of 2.836 fold. It also gave a doxfold [1, 17] of 1.096 fold, a doxfold [1, 18] of 2.172 fold and a doxfold ([1]; feature cpdID 29124, neutral mass 672.6836, RT 6.559082, no hit) of 1.282 fold. For the same compound, the doxfold [1, 19] was −6.816 fold, the doxfold [1, 20] was −1.423 fold and the doxfold [1, 21] was 1.817 fold. It also gave a doxfold [1, 22] of 1.663 fold, a doxfold ([1]; feature cpdID 37922, neutral mass 932.7613, RT 6.562271, no hit) of 1.324 fold and a doxfold [1, 23] of 1.117 fold. For the same compound, the doxfold ([1]; feature cpdID 40510, neutral mass 1040.322, RT 6.499979, no hit) was 1.351 fold, the doxfold [1, 24] was −3.594 fold and the doxfold [1, 25] was 1.838 fold. It also gave a doxfold [1, 26] of 1.667 fold.

`CC/C(=C(\c1ccccc1)c1ccc(OCCN(C)C)cc1)c1ccccc1` [Tamoxifen] showed a tamfold [1, 2] of 1.889 fold, a tamfold [1, 3] of 2.064 fold and a tamfold [1, 4] of 1.708 fold. For the same compound, the tamfold [1, 5] was 11.4 fold, the tamfold ([1]; feature cpdID 15112, neutral mass 372.0557, RT […], no hit) was −1.266 fold and the tamfold [1, 6] was 1.21 fold. It also gave a tamfold [1, 7] of 10.16 fold, a tamfold [1, 8] of −1.832 fold and a tamfold [1, 9] of 15.8 fold. It also gave a tamfold [1, 10] of 1.975 fold, a tamfold [1, 11] of 7.564 fold and a tamfold [1, 12] of 1.75 fold. The tamfold [1, 13] was 2.706 fold, the tamfold [1, 14] was −1.008 fold and the tamfold [1, 15] was 5.478 fold. For the same compound, the tamfold [1, 16] was 3.46 fold, the tamfold [1, 17] was 1.185 fold and the tamfold [1, 18] was 2.364 fold. The tamfold [1, 19] was −1.514 fold, the tamfold [1, 20] was 1.02 fold and the tamfold [1, 21] was 1.968 fold. It also gave a tamfold [1, 22] of 1.8 fold, a tamfold [1, 23] of 1.939 fold and a tamfold [1, 24] of −1.752 fold. The tamfold [1, 25] was 1.731 fold and the tamfold [1, 26] was 1.765 fold.

Source: patent US20110081675A1, “Metabolic Biomarkers Of Drug-Induced Cardiotoxicity” (WISCONSIN ALUMNI RESEARCH FOUNDATION, priority 2009, published 2011)
